Data: patent US20050176655A1, “Novel macrolide derivatives havaing effect of potentiating antifungal activity” (priority 2002, published 2005)

What was measured:
Experiment in all cases: Paper disk method, enhancing action for activities of azole antifungal agents
Type in all cases: cell-based
[1] = tested on: Aspergillus niger ATCC 6275; conditions: 48 hours; for Inhibition activity (inhibition ring mm) A. niger ATCC 6275 GYF / Transparency of the inhibition ring A. niger ATCC 6275 GYF: fluconazole 10 μg/ml; for Inhibition activity (inhibition ring mm) A. niger ATCC 6275 GYM / Transparency of the inhibition ring A. niger ATCC 6275 GYM: miconazole 0.1 μg/ml
Summary of the method: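 Paper-disk assay on A. niger ATCC 6275 spores (0.2%) seeded on GY agar pH 6.0. After 48 h, inhibition-zone diameter recorded in mm and transparency graded A (transparent) to E (opaque).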

[2] = tested on: fluconazole resistant Candida albicans ATCC 64550; conditions: 24 hours; for Inhibition activity (inhibition ring mm) C. albicans ATCC 64550 GYF / Transparency of the inhibition ring C. albicans ATCC 64550 GYF: fluconazole 30 μg/ml; for Inhibition activity (inhibition ring mm) C. albicans ATCC 64550 GYM / Transparency of the inhibition ring C. albicans ATCC 64550 GYM: miconazole 0.15 μg/ml
Protocol: Test organisms used were Candida albicans ATCC 64548, fluconazole resistant Candida albicans ATCC 64550 and Aspergillus niger ATCC 6275. Candida spp. were cultured in Waksman broth (glucose 2.0%, peptone 0.5%, dry yeast 0.3%, meat extract 0.5%, NaCl 0.5% and CaCO3 0.3%, pH 7.0) at 27° C. for 40 hours, then 0.1% thereof was inoculated on GY agar medium (glucose 1.0%, yeast extract 0.5% and agar 0.8%, pH 6.0). Spore suspension 0.2% of Aspergillus niger ATCC 6275 was inoculated on GY agar medium.
Azole antifungal agents used were miconazole (Sigma Inc., the U.S.) and fluconazole (ICN Pharmaceuticals, Inc., the U.S.), and were added at concentrations without affecting growth on each test organisms follows.
Candida albicans ATCC 64550: miconazole 0.15 μg/ml or fluconazole 30 μg/ml.
In the above medium, a medium added with miconazole to GY medium (control) is designated as GYM, and a medium added with fluconazole is designated as GYF. Activities were assessed by means of paper disk method (thickness: 8 mm, ADVANTEC MFS INC., Japan). Diameter of inhibition ring is expressed with mm unit after culturing Candida spp. for 24 hours and Aspergillus niger ATCC 6275 for 48 hours. Transparency of the inhibition ring is assessed with 5 degrees of A, B, C, D and E (transparence<A<B<C<D<E<opaque).

[3] = tested on: Candida albicans ATCC 64548; conditions: 24 hours; for Inhibition activity (inhibition ring mm) C. albicans ATCC 64548 GYM / Transparency of the inhibition ring C. albicans ATCC 64548 GYM: miconazole 0.03 μg/ml; for Inhibition activity (inhibition ring mm) C. albicans ATCC 64548 GYF / Transparency of the inhibition ring C. albicans ATCC 64548 GYF: fluconazole 0.5 μg/ml
Summary of the method: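 GY agar (pH 6.0) seeded with C. albicans ATCC 64548 precultured in Waksman broth at 27° C for 40 hours, supplemented with sub-growth-inhibitory miconazole 0.03 μg/ml or fluconazole 0.5 μg/ml. Paper disk method; inhibition-zone diameter (mm) read after 24 hours, transparency graded A–E.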

[4] = 50 μg/8 mm disk, GY medium (control, no azole)

Row | SMILES | Inhibition activity (inhibition ring mm) A. niger ATCC 6275 GYF ([1]; 10 μg/8 mm disk) | Transparency of the inhibition ring A. niger ATCC 6275 GYF ([1]; 10 μg/8 mm disk) | Inhibition activity (inhibition ring mm) A. niger ATCC 6275 GYF ([1]; 50 μg/8 mm disk) | Transparency of the inhibition ring A. niger ATCC 6275 GYF ([1]; 50 μg/8 mm disk) | Inhibition activity (inhibition ring mm) A. niger ATCC 6275 GYM ([1]; 50 μg/8 mm disk) | Transparency of the inhibition ring A. niger ATCC 6275 GYM ([1]; 50 μg/8 mm disk) | Inhibition activity (inhibition ring mm) C. albicans ATCC 64550 GYF ([2]; 50 μg/8 mm disk) | Transparency of the inhibition ring C. albicans ATCC 64550 GYF ([2]; 50 μg/8 mm disk) | Inhibition activity (inhibition ring mm) C. albicans ATCC 64550 GYM ([2]; 50 μg/8 mm disk) | Transparency of the inhibition ring C. albicans ATCC 64550 GYM ([2]; 50 μg/8 mm disk) | Inhibition activity (inhibition ring mm) C. albicans ATCC 64548 GYM ([3]; 50 μg/8 mm disk) | Transparency of the inhibition ring C. albicans ATCC 64548 GYM ([3]; 50 μg/8 mm disk) | Inhibition activity (inhibition ring mm) A. niger ATCC 6275 GYM ([1]; 10 μg/8 mm disk) | Transparency of the inhibition ring A. niger ATCC 6275 GYM ([1]; 10 μg/8 mm disk) | Inhibition activity (inhibition ring mm) C. albicans ATCC 64550 GYF ([2]; 10 μg/8 mm disk) | Transparency of the inhibition ring C. albicans ATCC 64550 GYF ([2]; 10 μg/8 mm disk) | Inhibition activity (inhibition ring mm) C. albicans ATCC 64548 GYM ([3]; 10 μg/8 mm disk) | Transparency of the inhibition ring C. albicans ATCC 64548 GYM ([3]; 10 μg/8 mm disk) | Inhibition activity (inhibition ring mm) C. albicans ATCC 64548 GYF ([3]; 50 μg/8 mm disk) | Transparency of the inhibition ring C. albicans ATCC 64548 GYF ([3]; 50 μg/8 mm disk) | also measured
1 | CCC(=O)OC1C(C)OC(OC2C(C)C(=O)OC(C(C)(O)C(CC)OC(=O)CC)C(C)C3=C(C)CC(C)(O3)C(OC3OC(C)CC(N(C)C)C3OC(C)=O)C2C)CC1(C)OC (stereo not shown) [Compound 771, 2′-O-acetyl-4″,13-Di-O-propionyl-8,9-Anhydro-pseudoerythromycin A 6,9-hemiketal] | 14 mm | E (Growth of test organism was inhibited 35% or less.) | 15 mm | E (Growth of test organism was inhibited 35% or less.) | 23 mm | E (Growth of test organism was inhibited 35% or less.) | 10 mm | E (Growth of test organism was inhibited 35% or less.) | 10 mm | A (Growth of test organism was inhibited 95% or more.) | 12 mm | D (Growth of test organism was inhibited 35% or more and 55% or less.) | – | – | – | – | – | – | – | – | –
2 | CCCCCC(=O)OC1C(C)OC(OC2C(C)C(=O)OC(C(C)(O)C(CC)OC(=O)CCCCC)C(C)C3=C(C)CC(C)(O3)C(OC3OC(C)CC(N(C)C)C3OC(C)=O)C2C)CC1(C)OC (stereo not shown) [Compound 772, 2′-O-acetyl-4″,13-Di-O-hexanoyl-8,9-Anhydro-pseudoerythromycin A 6,9-hemiketal] | 10 mm | D (Growth of test organism was inhibited 35% or more and 55% or less.) | 10 mm | D (Growth of test organism was inhibited 35% or more and 55% or less.) | 13 mm | A (Growth of test organism was inhibited 95% or more.) | 14 mm | B (Growth of test organism was inhibited 75% of more and 95% or less.) | 12 mm | A (Growth of test organism was inhibited 95% or more.) | 12 mm | B (Growth of test organism was inhibited 75% of more and 95% or less.) | 12 mm | E (Growth of test organism was inhibited 35% or less.) | 11 mm | E (Growth of test organism was inhibited 35% or less.) | 14 mm | B (Growth of test organism was inhibited 75% of more and 95% or less.) | 10 mm | D (Growth of test organism was inhibited 35% or more and 55% or less.) | Inhibition activity (inhibition ring mm) A. niger ATCC 6275 GY [1, 4]: 12 mm; Transparency of the inhibition ring A. niger ATCC 6275 GY [1, 4]: E (Growth of test organism was inhibited 35% or less.); Inhibition activity (inhibition ring mm) C. albicans ATCC 64548 GYF ([3]; 10 μg/8 mm disk): 9 mm; Transparency of the inhibition ring C. albicans ATCC 64548 GYF ([3]; 10 μg/8 mm disk): D (Growth of test organism was inhibited 35% or more and 55% or less.)
3 | CCC(OC(=O)c1ccccc1)C(C)(O)C1OC(=O)C(C)C(OC2CC(C)(OC)C(OC(=O)c3ccccc3)C(C)O2)C(C)C(OC2OC(C)CC(N(C)C)C2OC(C)=O)C2(C)CC(C)=C(O2)C1C (stereo not shown) [Compound 773, 2′-O-acetyl-4″,13-Di-O-benzoyl-8,9-Anhydro-pseudoerythromycin A 6,9-hemiketal] | 10 mm | E (Growth of test organism was inhibited 35% or less.) | 15 mm | E (Growth of test organism was inhibited 35% or less.) | 15 mm | B (Growth of test organism was inhibited 75% of more and 95% or less.) | 15 mm | A (Growth of test organism was inhibited 95% or more.) | 14 mm | A (Growth of test organism was inhibited 95% or more.) | 16 mm | A (Growth of test organism was inhibited 95% or more.) | 13 mm | E (Growth of test organism was inhibited 35% or less.) | 11 mm | E (Growth of test organism was inhibited 35% or less.) | 13 mm | C (Growth of test organism was inhibited 55% or more and 75% or less.) | 12 mm | E (Growth of test organism was inhibited 35% or less.) | Inhibition activity (inhibition ring mm) C. albicans ATCC 64550 GYM ([2]; 10 μg/8 mm disk): 10 mm; Transparency of the inhibition ring C. albicans ATCC 64550 GYM ([2]; 10 μg/8 mm disk): C (Growth of test organism was inhibited 55% or more and 75% or less.)
